Results: patent publication US11166954B2, “Dihydropyrimidine compound and preparation method and use thereof” (SICHUAN KELUN-BIOTECH BIOPHARMACEUTICAL CO., LTD., priority 2016, dated 2021)
Where two headings read alike, the source gives them in different places.

Columns and labels:
[1] = molecular target: T1, hERG potassium ion channel (Homo sapiens, UniProt Q12809); assay: Predictor hERG Fluorescence Polarization Assay; format: binding; details: hERG fluorescence polarization
T1 construct: purchased
T1 sequence (Q12809 whole entry): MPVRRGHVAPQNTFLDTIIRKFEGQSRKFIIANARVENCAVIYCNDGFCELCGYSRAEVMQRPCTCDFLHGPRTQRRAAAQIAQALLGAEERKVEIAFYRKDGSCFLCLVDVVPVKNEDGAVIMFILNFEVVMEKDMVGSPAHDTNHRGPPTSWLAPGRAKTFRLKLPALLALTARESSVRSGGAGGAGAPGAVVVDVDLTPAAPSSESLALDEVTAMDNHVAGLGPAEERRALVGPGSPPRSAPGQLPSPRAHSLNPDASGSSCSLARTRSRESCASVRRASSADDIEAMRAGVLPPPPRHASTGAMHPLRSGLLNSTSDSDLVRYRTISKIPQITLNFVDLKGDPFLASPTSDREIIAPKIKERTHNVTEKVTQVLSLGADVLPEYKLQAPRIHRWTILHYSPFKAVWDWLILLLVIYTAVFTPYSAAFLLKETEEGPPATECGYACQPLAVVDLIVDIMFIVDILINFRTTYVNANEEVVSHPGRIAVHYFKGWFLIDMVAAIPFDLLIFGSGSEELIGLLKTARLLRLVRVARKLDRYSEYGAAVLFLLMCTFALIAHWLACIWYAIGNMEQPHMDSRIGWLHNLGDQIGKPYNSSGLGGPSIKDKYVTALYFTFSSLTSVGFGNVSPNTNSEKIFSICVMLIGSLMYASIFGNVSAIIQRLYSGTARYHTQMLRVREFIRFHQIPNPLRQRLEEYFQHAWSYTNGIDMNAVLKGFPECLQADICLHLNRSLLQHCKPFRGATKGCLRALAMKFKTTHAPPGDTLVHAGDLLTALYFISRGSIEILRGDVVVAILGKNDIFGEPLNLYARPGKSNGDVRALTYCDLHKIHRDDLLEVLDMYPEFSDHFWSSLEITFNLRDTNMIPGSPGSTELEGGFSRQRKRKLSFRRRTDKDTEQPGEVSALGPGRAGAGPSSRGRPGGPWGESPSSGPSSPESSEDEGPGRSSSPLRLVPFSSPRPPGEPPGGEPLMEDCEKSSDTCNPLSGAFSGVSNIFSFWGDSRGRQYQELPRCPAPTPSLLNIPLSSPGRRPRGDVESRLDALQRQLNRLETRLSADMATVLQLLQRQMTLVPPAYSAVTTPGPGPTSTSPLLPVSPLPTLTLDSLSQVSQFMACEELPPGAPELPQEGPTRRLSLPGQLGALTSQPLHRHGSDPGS
Source text: In cardiac muscle cells, hERG (human Ether-a-go-go Related Gene) coded potassium channel mediates delayed rectifier potassium currents (IKr). IKr inhibition is the most important mechanism of QT interval prolongation caused by a drug.
Employing the Predictor™ hERG Fluorescence Polarization Assay, the effect of the compounds on a hERG potassium ion channel was detected.

HepG2.2.15 cells = assay: Cytotoxicity detection (CellTiter-Glo); format: cell-based; details: 4 days, highest concentration 150 μM
Procedure: (§1) The test compounds were diluted to 30 mM with DMSO, with 30 mM as the highest concentration, the compounds were subjected to three-fold serial dilution to various concentrations. 0.2 μL of the compounds at various concentrations were added to a 384-well plate, HepG2.2.15 cells having a concentration of 2000 cells per 50 μL were added to each well, and the highest concentration of the test compounds was 150 μM. 1 μL of DMSO was added to corresponding wells for control. The plate was incubated in a 5% CO2 incubator at 37° C. for 4 days; and 50 μL of CellTiter-Glo was added to each well after 4 days. The plate was read for detection, and a half cytotoxic concentration (CC50) was calculated.

[2] = tested on: hepatitis type B virus (HBV); assay: Inhibition of HBV DNA replication in HepG2.2.15 cells; format: cell-based
Procedure: The inhibitory effect of the compounds of the present invention on hepatitis type B virus (HBV) was tested. Cytotoxicity and effects on nucleic acid (DNA) replication level of the virus (HBV) of the compounds of the present invention were tested at a virus-cell level.
HepG2.2.15 cells in the logarithmic growth phase were plated in a 96-well plate at a cell concentration of 40 cells per μL. The cells were incubated in a 5% CO2 incubator at 37° C. for 3 days; and the culture medium was replaced with a new one ([…]) before adding compounds. The concentration of the stock solution of each Example compound is 200 μM.

[3] = In vivo pharmacokinetics (PK) in rats; details: male, SD, rat; for Kp: liver/plasma, 2 mg/kg
Procedure: (§2) The test compounds were administrated to male SD rats by intravenous (iv) and by gavage (po), respectively, the doses of the iv and po administration were respectively 1 mg/kg and 2 mg/kg, the solvent system for iv administration was 5% DMSO:5% solutol:90% physiological saline, and the solvent system for po administration was 0.5% MC. Blood was collected at multiple time points after iv administration and po administration for the PK study. Plasma samples and liver tissue samples were subjected to protein precipitation, followed by LC-MS/MS analysis. The mass spectrometer was API 5500, and the liquid chromatograph is a Waters ACQUITY I CLASS system; the chromatographic column was an Agela ASB C18 column (2.1 mm×50 mm, 1.9 μm); mobile phase A was water+0.1% formic acid, and phase B was acetonitrile; the flow rate was 0.4 mL/min, and the column temperature was 40° C. The ion source was an ESI source in a positive ion mode, and the scanning manner is multiple reaction monitoring (MRM).

[4] = Cytotoxicity detection (CellTiter-Glo); format: cell-based; details: human, HepG2.2.15 cells, highest concentration 150 μM
Procedure: as §1

[5] = In vivo pharmacokinetics (PK) in cynomolgus macaques; design: species or system male cynomolgus macaques; details: cynomolgus macaque
Procedure: as §2, with “male cynomolgus macaques” for “male SD rats”, “respectively 0.5” for “respectively 1”, “and 2.5” for “and 2”, “samples” for “samples and liver tissue samples”, “5500,” for “5500, and”, “chromatograph was” for “chromatograph is”

hepatitis B virus = assay: Mouse HBV model via tail vein hydrodynamic injection (HDI); format: in vivo, female BALB/c mice
Procedure: The in vivo inhibitory effect on hepatitis B virus of the compound of the present invention was evaluated by employing a mouse HBV model via tail vein hydrodynamic injection (HDI).
A suspension of compound 10-227 of the present invention was prepared with a 0.5% MC solution as the solvent. Female BALB/c mice were injected with pAAV2-HBV 1.3mer (type D) plasmid DNA via tail vein hydrodynamic injection, and then divided into the control group, test group 1 and test group 2 (5 mice in each group). Oral gavage administration was initiated one day later. The control group was given the 0.5% MC solution each time. The test groups 1 and 2 each time were given compound 10-227 (in the form of the suspension prepared above) at a dosage of 1 mg/kg and 3 mg/kg, respectively. The administration was continued for 7 days, twice a day, at an administration interval of 10 hours or 14 hours. Mouse plasma was collected at different time points (e.g., 1 day, 3 days, 5 days or 7 days after the HDI), and the HBV DNA levels in the plasma samples were detected by the RT-qPCR method.
In addition, throughout the entire in vivo test, the weight and body condition of the mice were measured and observed everyday according to an IACUC (Institutional Animal Care and Use Committee) protocol.

CYP3A4 = CYP3A4 induction test (HepG2 C3A/pCYP3A4-Luc, C8 cells, luciferase); format: cell-based; details: human, HepG2 C3A/pCYP3A4-Luc, C8 cells; CYP3A4 induction, 72 hours
Procedure: (§3) A test tube of HepG2 C3A/pCYP3A4-Luc, C8 cells was taken out of a liquid nitrogen tank, the cells were recovered in a sterile water bath at 37° C.; and the test tube was gently shaken until ice completely melted. The recovered cells were transferred to a 15 mL sterile centrifuge tube, and 5-10 mL pre-heated basal cell culture medium at 37° C. was added; the cells were naturally settled for 2 minutes and centrifuged (1000 rpm) for 8 minutes. The supernatant was discarded, and the cells were re-suspended with 10 mL pre-heated cell culture medium. The cell suspension was transferred to a 10 cm cell-culture dish and incubated in a 5% CO2 incubator at 37° C. The original cell culture medium was replaced with a selective cell culture medium after 24 hours. The cells were digested after growing in 80%-90% of the culture dish, and then transferred to a 15 mL sterile centrifuge tube. Centrifugation was performed at 1000 rpm for 8 minutes, and the cells were collected. The supernatant was discarded, and the cells were re-suspended with 3 mL pre-heated complete medium. […] The supernatant was discarded, the cells were re-suspended and counted, and the suspension was diluted to 4×10^5 cells per mL. […] The fluorescence signal was measured on a plate reader. A concentration curve of the tested compounds was plotted by using software Prism 5, and the EC50 values were calculated.

CYP450 isoform 3A4 = assay: as above; format: cell-based; details: at a concentration of 10 μM
Procedure: as §3

[6] = In vivo pharmacokinetics (PK) in Beagle dogs; design: species or system male Beagle dogs; details: Beagle dog
Procedure: as §2, with “male Beagle dogs” for “male SD rats”, “respectively 0.5” for “respectively 1”, “and 2.5” for “and 2”, “samples” for “samples and liver tissue samples”, “chromatograph was” for “chromatograph is”

[7] = HepG2.2.15, HBV DNA replication
[8] = male, cynomolgus monkey, 0.5 mg/kg, iv, 0.50 mg/kg, plasma
[9] = male, cynomolgus monkey, 2.5 mg/kg, po, 2.50 mg/kg, plasma
[10] = male, 0.5 mg/kg, iv, 0.50 mg/kg, plasma
[11] = male, 2.5 mg/kg, po, 2.50 mg/kg, plasma

CCOC(=O)C1=C(CN2CCC(O)C(F)(F)C2)NC(c2nccs2)=N[C@H]1c1ccc(F)cc1Cl (single isomer, unassigned) [Isomer A of Example 4]
IC50 [1]: > 10 µM | CC50 (HepG2.2.15 cells): 43.9 µM | EC50 ([2]; HBV DNA replication): 35.1 nM

CCOC(=O)C1=C(CN2CCO[C@H](/C=C/C(=O)O)C2)NC(c2nccs2)=N[C@H]1c1ccc(F)cc1Cl [10-226 of Example 25, (E)-3-((R)-4-(((R)-6-(2-chloro-4-fluorophenyl)-5-(ethoxycarbonyl)-2-(thiazol-2-yl)-3,6-dihydropyrimidin-4-yl)methyl)morpholin-2-yl)acrylic Acid]
IC50 [1]: > 10 µM | bioavailability ([3]; plasma, po, by gavage, 2.00 mg/kg, read-out: bioavailability (F)): 47.6% | AUC(0-inf) ([3]; iv, 1.00 mg/kg, plasma): 2400 ng·h/mL | Cmax ([3]; iv, 1.00 mg/kg, plasma): 2890 ng/mL | AUC(0-inf) ([3]; po, 2.00 mg/kg, liver): 3030 ng·h/mL | Cmax ([3]; po, 2.00 mg/kg, liver): 1690 ng/mL | AUC(0-inf) ([3]; po, 2.00 mg/kg, plasma): 2290 ng·h/mL | Cmax ([3]; po, 2.00 mg/kg, plasma): 2180 ng/mL | CC50 at 4 days [4]: > 150 µM | EC50 [2, 7]: 9.2 nM

COC(=O)C1=C(CN2CCO[C@H](/C=C/C(=O)O)C2)NC(c2nccs2)=N[C@H]1c1ccc(F)cc1Cl [10-227 of Example 27, (E)-3-((R)-4-(((R)-6-(2-chloro-4-fluorophenyl)-5-(methoxycarbonyl)-2-(thiazol-2-yl)-3,6-dihydropyrimidin-4-yl)methyl)morpholin-2-yl)acrylic Acid]
amount of exposure in plasma relative to control compound 3 ([5]; by gavage, 2.50 mg/kg): about 21 times | blood-drug concentration relative to control compound 3 ([5]; by gavage, 2.50 mg/kg): about 33 times | AUC(0-inf) [5, 8]: 2460 ng·h/mL | AUC(0-t) [5, 8]: 2440 ng·h/mL | Cmax [5, 8]: 1670 ng/mL | AUC(0-inf) [5, 9]: 4570 ng·h/mL | AUC(0-t) [5, 9]: 4420 ng·h/mL | Cmax [5, 9]: 1070 ng/mL | bioavailability ([5]; male, cynomolgus monkey, plasma, po, 2.5 mg/kg, by gavage, 2.50 mg/kg, read-out: bioavailability (F)): 37.2% | HBV DNA level in plasma (hepatitis B virus; Test group 1, 1 mg/kg oral gavage twice a day, 1 day after HDI): 1.95 ± 0.09 log (HBV DNA copies/μl) | HBV DNA level in plasma (hepatitis B virus; Test group 1, 1 mg/kg oral gavage twice a day, 3 days after HDI): 2.28 ± 0.17 log (HBV DNA copies/μl) | HBV DNA level in plasma (hepatitis B virus; Test group 1, 1 mg/kg oral gavage twice a day, 5 days after HDI): 2.77 ± 0.11 log (HBV DNA copies/μl) | HBV DNA level in plasma (hepatitis B virus; Test group 1, 1 mg/kg oral gavage twice a day, 7 days after HDI): 2.77 ± 0.14 log (HBV DNA copies/μl) | HBV DNA level in plasma (hepatitis B virus; Test group 2, 3 mg/kg oral gavage twice a day, 1 day after HDI): 1.99 ± 0.09 log (HBV DNA copies/μl) | HBV DNA level in plasma (hepatitis B virus; Test group 2, 3 mg/kg oral gavage twice a day, 3 days after HDI): 1.95 ± 0.15 log (HBV DNA copies/μl) | HBV DNA level in plasma (hepatitis B virus; Test group 2, 3 mg/kg oral gavage twice a day, 5 days after HDI): 1.57 ± 0.08 log (HBV DNA copies/μl) | HBV DNA level in plasma (hepatitis B virus; Test group 2, 3 mg/kg oral gavage twice a day, 7 days after HDI): 1.42 ± 0.31 log (HBV DNA copies/μl) | variation in body weight (hepatitis B virus; mice, during 7 days of administration, 1 and 3 mg/kg): < 10% | IC50 [1]: > 10 µM | EC50 at 72 h (CYP3A4): 123 µM | inductive effect on CYP450 isoform 3A4 relative to rifampicin (CYP450 isoform 3A4): about 29% | CC50 at 4 days [4]: > 150 µM | EC50 [2, 7]: 10 nM | amount of exposure in plasma relative to control compound 3 ([6]; by gavage, 2.50 mg/kg): about 14 times | blood-drug concentration relative to control compound 3 ([6]; by gavage, 2.50 mg/kg): about 6 times | AUC(0-inf) [6, 10]: 8750 ng·h/mL | AUC(0-t) [6, 10]: 8690 ng·h/mL | Cmax [6, 10]: 2310 ng/mL | AUC(0-inf) [6, 11]: 33200 ng·h/mL | AUC(0-t) [6, 11]: 32900 ng·h/mL | Cmax [6, 11]: 7200 ng/mL | bioavailability ([6]; male, plasma, po, 2.5 mg/kg, by gavage, 2.50 mg/kg, read-out: bioavailability (F)): 75.9%

CCOC(=O)C1=C(CN2C[C@@H](/C=C/C(=O)O)CC(F)(F)C2)NC(c2nccs2)=N[C@H]1c1ccc(F)cc1Cl [10-230 of Example 26, (E)-3-((R)-1-(((R)-6-(2-chloro-4-fluorophenyl)-5-(ethoxycarbonyl)-2-(thiazol-2-yl)-3,6-dihydropyrimidin-4-yl)methyl)-5,5-difluoropiperidin-3-yl)acrylic Acid]
IC50 [1]: > 10 µM | Kp ([3]; po, po, 2.00 mg/kg, AUCINF liver/plasma, read-out: amount of exposure in liver relative to that in plasma): ~10 | Kp ([3]; po, po, 2.00 mg/kg, Cmax liver/plasma, read-out: blood-drug concentration in liver relative to that in plasma): ~10 | AUC(0-inf) ([3]; po, 2.00 mg/kg, liver): 2340 ng·h/mL | Cmax ([3]; po, 2.00 mg/kg, liver): 1520 ng/mL | AUC(0-inf) ([3]; po, 2.00 mg/kg, plasma): 236 ng·h/mL | Cmax ([3]; po, 2.00 mg/kg, plasma): 179 ng/mL | CC50 at 4 days [4]: 137 µM | EC50 [2, 7]: 11.2 nM
